Assay results published in PubChem BioAssay (NCI).
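Cells were grown in 96-well plates and exposed to each compound for 48 hours at five concentrations; endpoints were interpolated linearly between bracketing concentrations, or set to the highest concentration if not reached. TGI: total growth inhibition.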

Legend:
Test in all cases: NCI tumour cell line growth inhibition, 48 h
[1] = tested on: 786-0 renal
[2] = tested on: DMS 273 small cell lung
[3] = tested on: HOP-18 NSCLC
[4] = tested on: P388/ADR leukemia
[5] = tested on: M19-MEL melanoma
[6] = tested on: SNB-78 CNS
[7] = tested on: DMS 114 small cell lung
[8] = tested on: DLD-1 colon
[9] = tested on: KM20L2 colon
[10] = tested on: SN12K1 renal
[11] = tested on: P388 leukemia
[12] = tested on: LXFL 529 NSCLC
[13] = tested on: RXF-631 renal

Row | SMILES | TGI [1] | TGI [2] | TGI [3] | TGI [4] | TGI [5] | TGI [6] | TGI [7] | TGI [8] | TGI [9] | TGI [10] | TGI [11] | TGI [12] | TGI [13]
1 | CC(=O)[C@]1(O)Cc2c(O)c3c(c(O)c2C(OC2OC(C)C(O)C(O)C2F)C1)C(=O)c1ccccc1C3=O (some centres not stated) | > 37.1 µM | – | – | – | – | – | – | – | – | – | – | – | –
2 | CC[C@]12C=CCN3CC[C@@]4(c5ccc(OC)cc5N(C)[C@H]4[C@@](O)(C(=O)OC)[C@@H]1OC(C)=O)[C@@H]32 | – | > 200 µM | > 200 µM | > 200 µM | > 63.2 µM | > 200 µM | > 200 µM | > 200 µM | > 164 µM | > 200 µM | – | – | –
3 | COc1ccc2c(c1)CCCc1cn[nH]c1-2 | – | > 100 µM | > 100 µM | > 100 µM | > 100 µM | > 100 µM | > 100 µM | > 100 µM | > 100 µM | > 100 µM | > 100 µM | – | –
4 | CC(C(=O)O)c1cnn(-c2ccccc2)c1-n1cccc1 (configuration not stated) | – | > 100 µM | > 100 µM | > 100 µM | > 100 µM | > 100 µM | – | > 100 µM | > 100 µM | > 100 µM | > 100 µM | – | –
5 | CCOCNC(=O)N(COCC)COCC | – | – | – | – | > 100 µM | > 100 µM | > 100 µM | > 100 µM | > 100 µM | – | – | > 100 µM | > 100 µM
6 | NCCc1nc(-c2nc(C(=O)O)cs2)cs1 | > 100 µM | – | – | – | – | – | – | – | – | – | – | – | –
